Results taken from a melting point compilation (Tetko et al.; mined from patent text by program, amines drawn as free bases though some values may be those of a salt).

| melting point | SMILES |
| --- | --- |
| 80 to 82 °C | COc1cc(Cn2cnc3cccnc32)ccc1C(=O)N(C1CCCC1)C1CC(C)CC(C)C1 (stereo unspecified) |
| 46 to 51 °C | C=C(C(=O)c1ccc(OC)c(Cl)c1Cl)C(C)C |
| 120 to 125 °C | NC(=O)OCCn1nccc1-c1ccc(Oc2ccc(F)cc2)cc1 |
| 224 to 228 °C | Cc1c(Cl)cccc1N=C1NCCN1C(=O)c1ccc(C#N)cc1 |
| 131 to 132 °C | Cc1cccnc1-n1c(=S)nc2c(C)cccn2c1=S |
| 200 to 201 °C | CC(C)Cn1c(C(=O)O)c(-c2ccc(Cl)cc2)c2cc(OCc3ccccc3)ccc2c1=O |
| 87 to 88 °C | COc1ccc(C(=O)Cc2ccccc2)c(O)c1 |
| 94 to 95 °C | CC(S)C(=O)NCc1noc(C(C)c2ccc(-c3ccccc3)c(F)c2)n1 (stereo unspecified) |
| 76 to 77 °C | COC(=O)Cc1cccc(OCc2nc(CCc3nc(-c4ccccc4)oc3C)no2)c1 |
| 103 to 104 °C | COc1cccc(-n2nc(Cl)cc2-c2ccc(S(C)(=O)=O)cc2)c1 |
| 145 to 146 °C | COc1ccc(-c2coc3ccc(-c4nnc(SCc5cccc(C#N)c5)o4)cc23)cc1 |
| 231 °C | N#Cc1c(Cl)c2ccccc2n(Cc2ccc(F)cc2)c1=O |
| 296 °C | O=c1c2ccccc2oc2cc(-c3nnn[nH]3)ccc12 |
| > 260 °C | COc1cc2c(cc1OC)-c1cc3cc(O)ccc3n1C2=O |
| 164 to 166 °C | O=c1ccc2cc(OCc3cn(-c4ccccc4Cl)nn3)ccc2o1 |
| 272 to 273 °C | COc1ccc(Cn2c(=O)[nH]c3ncccc3c2=O)cc1 |
| 247 to 249 °C | CCCCc1nc2cccc(C(=O)NC(C)C)c2n1Cc1ccc(-c2ccccc2-c2nnn[nH]2)cc1 |
| 192 to 193 °C | Cc1nc(N2CCN(Cc3ccc(F)cc3)C2=O)sc1C(=O)NCc1ccccc1 |
| 92 to 94 °C | Cc1nccc(C(=O)O)c1-c1nc(-c2ccc(Cl)cc2)cs1 |

| melting point | SMILES |
| --- | --- |
| 143 °C | COc1ccc(Cn2nc(-c3ccc(OC)cc3)c(-c3ccncc3)cc2=O)cc1 |
| 93.7 °C | Cc1ccc(C(=O)c2ccc(C(C)C(=O)O)cc2)s1 (stereo unspecified) |
| 139 °C | COc1ccc(S(=O)(=O)Nc2cc(C(F)(F)F)ccc2Oc2ccccc2C(=O)O)cc1 |
| 287 °C | Cc1[nH]c(C(=O)NCC2=NNC(=O)CC2)c(C)c1-c1nc2ccc(C(=O)c3ccccc3)cc2[nH]1 |
| 132 to 137 °C | COC(=O)c1cc(OCCOc2cccc3ccccc23)cc(OCCOc2cccc3ccccc23)c1 |
| 62 to 64 °C | CCc1nccc(N(C(=O)Cc2ccc(Oc3ccc(C(F)(F)F)cn3)cc2)C(=O)OC)c1Cl |
| 117 to 119 °C | COc1ccc(-c2cc(C)c(C(=O)NCCCCc3cccnc3)c(C)c2)cc1OC |
| 69 to 70 °C | COc1cc(C=O)cc(OC)c1OCCO |
| 117 to 118 °C | COc1cc(COc2ncccc2C#N)ccc1OCc1nc(-c2ccccc2)oc1C |
| 149 to 151 °C | COc1ccc(C(=O)c2ccc(-n3ccnc3)cc2)cc1OC |
| 154 to 156 °C | CCCc1c(OCCCS(=O)(=O)c2ccc(CC(=O)O)cn2)ccc(C(C)=O)c1O |
| 249 to 250 °C | Clc1nc2ccccc2c2[nH]c3ccccc3c12 |
| 196 °C | COc1ccc(C(=O)Nc2ccc3ccc(Cl)nc3n2)cc1OC |
| 201 to 203 °C | COc1ncc(-c2ccc3nnn(Cc4ccc5ncccc5c4)c3n2)cn1 |
| 212 to 213 °C | Nc1cc(C(=O)O)cc(OCc2ccccn2)c1C(=O)c1ccccc1 |
| 252 to 254 °C | COc1ccc(-n2cc(C(=O)O)c(=O)c3cc(F)c(F)c(F)c32)cc1 |
| 152 to 154 °C | COc1ccc(-c2nnn(-c3ccc(C(F)(F)F)cc3Cl)c2CBr)cc1 |
| 100 to 104 °C | O=C(c1ccccc1)c1cccc2cc[nH]c12 |

The next lines start with the compound.

| SMILES | melting point |
| --- | --- |
| CN(C)c1ccc(C2(c3ccc(N(C)C)cc3N(C)C)OC(=O)c3cc(N(C)C)ccc32)cc1 (stereo unspecified) | 182 to 185 °C |
| ON=Cc1cc(Cl)ncc1Cl | 173 to 174 °C |
| O=[N+]([O-])c1cc(Cl)cc2cccnc12 | 149 to 155 °C |
| O=C(c1cccnc1)N1CCC(c2ccccc2[N+](=O)[O-])=N1 | 123 to 125 °C |
| Cc1ccc(C(N)=S)c2ccccc12 | 143 to 145 °C |
| CCOC(=O)c1c(NC23CC4CC(CC(C4)C2)C3)n[nH]c1C | 190 to 203 °C |
| O=c1oc(=O)n(CCc2ccccc2)c2ncccc12 | 147 to 149 °C |
| Cc1ccc(S(=O)(=O)NC(=O)C2C(=O)CC3(CCCCC3)CC2=O)cc1 | 150 to 152 °C |
| c1ccc(Sc2cc(-c3ccccc3)n[nH]2)cc1 | 99 to 100 °C |
| O=c1cc(N2CCOCC2)oc2c(-c3cccc(O)c3)cccc12 | 203 to 205 °C |
| O=[N+]([O-])c1c(N2CCc3ccccc3CC2)nc2c(c1O)CCCCC2 | > 200 °C |
| CC1(C)Cc2ccccc2C(c2cnc3ccccc3c2)N1 (stereo unspecified) | 117 to 122 °C |
| COc1ccccc1N1CCN(CCCn2c(=O)[nH]c3sccc3c2=O)CC1 | 217 to 218 °C |
| CCOC(=O)C1CCc2c1sc(C)c2C(=O)c1ccc(SC)cc1 (stereo unspecified) | 62 to 64 °C |
| CCOC=Nc1nc(-c2ccc(C3CCCCC3)cc2)cs1 | 84 to 85 °C |
| C[C@@H](NC(=O)c1c[nH]c2ncc(-c3nn(C)c4cc(Cl)cc(Cl)c34)nc12)C(=O)N1CC(C#N)C1 | 196 to 200 °C |
| c1ccc(Nc2ccc(-c3ccc(N(c4ccccc4)c4ccc(-c5ccccc5)cc4)cc3)cc2)cc1 | 127 °C |
| CNC1=Nc2ccc(Cl)cc2N(c2ccccc2)C(=O)C1 | 215 to 217 °C |
| C=CCOc1cc(OC(=S)N2CCCC2)ccc1Cl | 87.3 to 91.1 °C |
| CC(C)C1N(CC(N)=O)C(=O)CN1C(=O)CN (stereo unspecified) | 205 to 211 °C |
| OCc1cc(CO)c(O)c(-c2ccccc2)c1 | 105 to 110 °C |
| Cn1c(S)nc(-c2ccccc2)c1-c1ccccc1 | 179 to 182 °C |

| SMILES | melting point |
| --- | --- |
| CCCn1nc(C)c([N+](=O)[O-])c1C(N)=O | 136 to 138 °C |
| CC1(C)COC(=O)N1Br | 118 to 120 °C |
| CC(=O)NN=C(C)c1ccncc1 | 178 °C |
| O=C(c1ccc(-c2ccc(=O)[nH]n2)cc1)N1CCC[C@H]1CN1CCCC1 | 62 to 66 °C |
| O=C(O)c1cc(OCc2ccccc2)c(C(=O)c2c(OCc3ccccc3)cccc2C(=O)OCc2ccccc2)c(OCc2ccccc2)c1 | 151 to 156 °C |
| CN(C)C(=O)C1CC(c2ccc(-c3ccc(N4C[C@H](Cn5ccnn5)OC4=O)cc3F)cn2)=NO1 (stereo partly specified) | 180 to 190 °C |
| CC(C)CCC(=O)NC[C@H](O)[C@H](O)[C@H](CC1CCCCC1)NC(=O)OC(C)(C)C | 179 to 183 °C |
| Fc1c(F)c(F)c(OC2(c3ccccc3)CCN(Cc3ccccc3)CC2)c(F)c1F | 80 to 83 °C |
| ClC1=NC2CCCc3c(Cl)ccc(c32)N1 (stereo unspecified) | 190 to 192 °C |
| CN(C(CCn1c(=O)cc(C(F)(F)F)[nH]c1=O)C(=O)NO)S(=O)(=O)c1ccc(Oc2cccc(Cl)c2)cc1 (stereo unspecified) | 168 to 169 °C |
| O=S1(=O)c2cccc3cccc(c23)N1CCCN1CCN(c2ccccc2F)CC1 | 112 °C |
| CC(=O)Nc1nc2c(s1)-c1nc(N3CCOCC3)ncc1C2 | > 300 °C |
| Cc1cc(-c2cc(C(=O)O)c(=O)n(CC=Cc3ccccc3)n2)ccc1F | 143 to 144 °C |
| CCCCC(=O)c1ccc(NC(C)=O)cc1O | 113 °C |
| CC(C)(C)OC(=O)NCCC(=O)NCc1cccc2c1C(=O)N(C1CCC(=O)NC1=O)C2=O (stereo unspecified) | 96 to 98 °C |
| CCCC1=C(C#N)C(c2ccccc2Cl)c2c(n[nH]c2CCC)N1 (stereo unspecified) | 237 °C |
| COC(=O)C1(OC)CC(O)C(NC(C)=O)C(C(O)C(O)CO)O1 (stereo unspecified) | 161 to 167 °C |
| CN1CC(CCN2CCN(c3ncccn3)CC2)c2nc3ccccc3n2C1=O (stereo unspecified) | 161 to 162 °C |
| COc1ccc(N2CCN(c3c(C)c(C)c4c(c3C)C[C@@H](C)O4)CC2)cc1 | 127 to 128 °C |
| CC(C)OP(=O)(OC(C)C)C(=CC=Cc1ccccc1)P(=O)(OC(C)C)OC(C)C | 103 to 104 °C |
| O=C(O)CC(NC(=O)OCc1ccccc1)C(=O)CON1C(=O)Cc2ccccc21 (stereo unspecified) | 58 to 70 °C |
| CC=Cc1cnn(-c2c(Cl)cc(C(F)(F)F)cc2Cl)n1 | 35 °C |

| SMILES | melting point |
| --- | --- |
| O=C(O)Cc1ccccc1N1CCOCC1 | 128 °C |
| Cc1c(CCO)c(=O)oc2c(O)c(O)ccc12 | 221 to 222 °C |
| CN1Cc2c(C#CCO)ncn2-c2cccc(Cl)c2C1=O | 250 to 252 °C |
| O=C(c1ccccc1)N(CCCn1cncn1)C1=Nc2cccc3cccc1c23 | 140 to 141 °C |
| O=C(O)c1ccc2c(c1)N(C1CC1)CNS2(=O)=O | 243 to 245 °C |
| CCCCc1c2ccccc2c(C=O)c2ccccc12 | 79 °C |
| CN1CCN(c2cc3c(Cl)cccc3c(=O)[nH]2)CC1 | 230 to 231 °C |
| CCOP(=O)(OCC)C(c1cccnc1)C(O)c1ccccc1 (stereo unspecified) | 238 °C |
| c1ccc(Oc2ccc(N3CCNCC3)nn2)cc1 | 96 to 97 °C |
| CC(C)=Cc1cn(-c2c(Cl)cc(C(F)(F)F)cc2Cl)nc1C#N | 72 to 74 °C |
| CCCCNC(=O)[C@H](C)C[C@H](O)[C@H](CC1CCCCC1)NC(=O)[C@H](Cc1cscn1)NC(=O)[C@@H](CC(=O)N1CCOCC1)Cc1ccccc1 | 162 to 163 °C |
| CCN(CC)S(=O)(=O)c1cc2c(ccc3nc(N)[nH]c(=O)c32)cc1Br | > 250 °C |
| COC(=O)n1c(=O)n(C(C)C)c2nc(=O)[nH]cc21 | 303 to 306 °C |
| Cc1c(Cl)c(Oc2ncc(C(F)(F)F)cc2Cl)nn1C(=O)NC1CCCCC1 | 94 to 96 °C |
| COc1cccc(CNC(=O)c2cc3c(s2)N(C)CNC3)c1 | 279 to 281 °C |
| Cn1cc(Cl)c2cc(C=O)ccc21 | 109 °C |
| CCOc1nc2c(cnn2CC)nc1C(=O)Nc1nccs1 | 151 to 152 °C |
| CCc1ccc2ncc(CO)c(OC(C)C)c2c1 | 43 to 46 °C |
| Cc1cc2nc(SCC(F)(F)F)[nH]c2cc1C | 150 to 163 °C |
| CC(C)(C)OC(=O)N1CCCC(C2=C(C#N)C(c3cccc4nonc34)c3c[nH]nc3N2)C1 (stereo unspecified) | 229 °C |
